Data as given in US20240383908A1, “SYNTHESIS AND APPLICATION OF PHOSPHATASE DEGRADER” (HINOVA PHARMACEUTICALS INC., priority 2021, published 2024).

The compounds below were run against T1, SHP2 protein (Homo sapiens, UniProt Q06124) (assay: Degradation activity on SHP2 protein in MIA Paca-2 cells (Western blot, DC50)). Conditions: read-out: Degradation activity for differenct cell lines MIA Paca-2 (DC50).
T1 sequence (Q06124 1-593): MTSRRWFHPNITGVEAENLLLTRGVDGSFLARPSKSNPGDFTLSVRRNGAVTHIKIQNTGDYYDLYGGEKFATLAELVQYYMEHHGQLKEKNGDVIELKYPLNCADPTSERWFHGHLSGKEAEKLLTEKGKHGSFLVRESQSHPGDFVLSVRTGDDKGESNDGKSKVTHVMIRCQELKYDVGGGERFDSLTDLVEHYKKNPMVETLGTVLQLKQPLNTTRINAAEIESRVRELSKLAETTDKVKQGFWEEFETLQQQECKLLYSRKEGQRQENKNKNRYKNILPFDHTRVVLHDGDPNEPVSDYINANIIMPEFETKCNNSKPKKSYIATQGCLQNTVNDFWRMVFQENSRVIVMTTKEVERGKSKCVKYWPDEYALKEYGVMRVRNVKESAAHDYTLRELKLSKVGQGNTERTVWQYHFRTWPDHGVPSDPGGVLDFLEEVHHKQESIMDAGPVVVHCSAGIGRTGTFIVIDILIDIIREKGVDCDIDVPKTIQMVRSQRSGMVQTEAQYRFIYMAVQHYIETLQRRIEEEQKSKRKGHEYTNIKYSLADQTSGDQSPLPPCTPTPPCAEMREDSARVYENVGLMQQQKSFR
Assay type: cell-based
Set-up: endogenous in cells; host or cells: MIA Paca-2 cells
Procedure, shortened: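 Cells were treated 24 h at 37 °C with compound (0.1–100 nM final, 0.1% DMSO). SHP2 was measured by Western blot with GAPDH as loading control, densitometry normalized to DMSO (100%). DC50, the concentration giving 50% degradation, came from a dose-response fit.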

Row | Compound | DC50
1 | CC1(N)CCN(c2cnc(Sc3cccc(N4CCC(CN5CCN(c6ccc7c(c6)CN(C6CCC(=O)NC6=O)C7=O)CC5)CC4)c3)cn2)CC1 (stereo not shown) [Compound 341] | > 1000 nM
2 | CC1(N)CCN(c2cnc(Sc3cccc(NC(=O)c4csc(N5CCC(N6CC=C(c7ccc(C(=O)NCc8ccc9c(c8)CN(C8CCC(=O)NC8=O)C9=O)nc7)CC6)CC5)n4)c3)cn2)CC1 (stereo not shown) [Compound 358] | > 1000 nM
3 | CC1(N)CCN(c2cnc(Sc3cccc(NC(=O)c4ccc(N5CCC(N6CC=C(c7ncc(C(=O)NCc8ccc9c(c8)CN(C8CCC(=O)NC8=O)C9=O)cc7C(F)(F)F)CC6)CC5)cc4)c3)cn2)CC1 (stereo not shown) [Compound 359] | < 100 nM
4 | CC1(N)CCN(c2cnc(Sc3cccc(NC(=O)c4ccc(C5=CCC(N6CC=C(c7ccc(C(=O)NCc8ccc9c(c8)CN(C8CCC(=O)NC8=O)C9=O)nn7)CC6)CC5)cc4)c3)cn2)CC1 (stereo not shown) [Compound 368] | < 100 nM
5 | CC1(N)CCN(c2cnc(Sc3cccc(NC(=O)c4ccc(N5CCC(N6CCC(c7ccc(C(=O)NCc8ccc9c(c8)CN(C8CCC(=O)NC8=O)C9=O)nc7)CC6)CC5)cc4)c3)cn2)CC1 (stereo not shown) [Compound 372] | < 100 nM
6 | NC1CCN(c2cnc(Sc3cccc(NC(=O)c4ccc(N5CCC(N6CC=C(c7ccc(C(=O)NCc8ccc9c(c8)CN(C8CCC(=O)NC8=O)C9=O)nn7)CC6)CC5)cc4)c3)cn2)CC1F (stereo not shown) [Compound 376] | > 1000 nM
7 | CC1(N)CCN(c2cnc(Sc3cccc(NC(=O)c4ccc(N5CCC(N6CCN(c7ccc(C(=O)NCc8ccc9c(c8)CN(C8CCC(=O)NC8=O)C9=O)nn7)CC6)CC5)cc4)c3)cn2)CC1 (stereo not shown) [Compound 389] | < 100 nM
8 | CC1(N)CCN(c2cnc(Sc3cccc(NC(=O)c4ccc(N5CCC(N6CCN(c7ccc(C(=O)NCc8ccc9c(c8)CN(C8CCC(=O)NC8=O)C9=O)nc7)CC6)CC5)cc4F)c3)cn2)CC1 (stereo not shown) [Compound 392] | < 100 nM
9 | CC1(N)CCN(c2cnc(Sc3cccc(NC(=O)c4ccc(N5CCC(N6CC=C(c7ccc(C(=O)NCc8ccc9c(c8)CN(C8CCC(=O)NC8=O)C9=O)nn7)CC6)C5)cc4)c3)cn2)CC1 (stereo not shown) [Compound 402] | < 100 nM
10 | CC1(N)CCN(c2cnc(Sc3cccc(NC(=O)c4cc(N5CCC(N6CC=C(c7ccc(C(=O)NCc8ccc9c(c8)CN(C8CCC(=O)NC8=O)C9=O)nn7)CC6)CC5)cs4)c3)cn2)CC1 (stereo not shown) [Compound 404] | > 1000 nM
11 | CC1(N)CCN(c2cnc(-c3cccc(NC(=O)c4ccc(N5CCC(N6CC=C(c7ccc(C(=O)NCc8ccc9c(c8)CN(C8CCC(=O)NC8=O)C9=O)nn7)CC6)CC5)cc4)c3)cn2)CC1 (stereo not shown) [Compound 407] | > 1000 nM
12 | CC1(N)CCN(c2ccc(-c3cccc(NC(=O)c4ccc(N5CCC(N6CC=C(c7ccc(C(=O)NCc8ccc9c(c8)CN(C8CCC(=O)NC8=O)C9=O)nn7)CC6)CC5)cc4)c3)cn2)CC1 (stereo not shown) [Compound 408] | > 1000 nM
13 | C[C@@H]1OCC2(CCN(c3cnc(Sc4cccc(NC(=O)c5ccc(N6CCC(N7CC=C(c8ccc(C(=O)NCc9ccc%10c(c9)CN(C9CCC(=O)NC9=O)C%10=O)nc8)CC7)CC6)cc5)c4)cn3)CC2)[C@@H]1N (stereo partly shown) [Compound 411] | < 100 nM
14 | CC1(N)CCN(c2cnc(Sc3cccc(NC(=O)c4ccc(N5CCC(N6CC=C(c7cnc(C(=O)NCc8ccc9c(c8)CN(C8CCC(=O)NC8=O)C9=O)c(Cl)c7)CC6)CC5)c(F)c4)c3)cn2)CC1 (stereo not shown) [Compound 413] | < 100 nM
15 | CC1(N)CCN(c2cnc(Sc3cccc(NC(=O)c4ccc(-c5ccc(N6CCC7(CC6)CC(C(=O)NCc6ccc8c(c6)CN(C6CCC(=O)NC6=O)C8=O)C7)cc5)cc4)c3)cn2)CC1 (stereo not shown) [Compound 415] | > 1000 nM
16 | CC1(N)CCN(c2cnc(Sc3cccc(NC(=O)c4ccc(C5=CCC(N6CC=C(c7ccnc(C(=O)NCc8ccc9c(c8)CN(C8CCC(=O)NC8=O)C9=O)c7)C6)CC5)c(F)c4)c3)cn2)CC1 (stereo not shown) [Compound 416] | > 1000 nM

Row | Compound | DC50
17 | CC1(N)CCN(c2cnc(Sc3cccc(NC(=O)c4ccc(N5CCC(N6CC=C(c7ncc(C(=O)NCc8ccc9c(c8)CN(C8CCC(=O)NC8=O)C9=O)o7)CC6)CC5)c(F)c4)c3)cn2)CC1 (stereo not shown) [Compound 417] | > 1000 nM
18 | CC1(N)CCN(c2cnc(Sc3cccc(NC(=O)C4CCC(N5CCC(N6CC=C(c7ccc(C(=O)NCc8ccc9c(c8)CN(C8CCC(=O)NC8=O)C9=O)nc7)CC6)C(F)C5)CC4)c3)cn2)CC1 (stereo not shown) [Compound 420] | < 100 nM
19 | CC1(N)CCN(c2cnc(Sc3cccc(NC(=O)c4ccc(-c5ccc(N6CCC(C7=CCC(C(=O)NCc8ccc9c(c8)CN(C8CCC(=O)NC8=O)C9=O)CC7)CC6)cc5)cc4)c3)cn2)CC1 (stereo not shown) [Compound 423] | > 1000 nM
20 | COC(=O)NC1(C)CCN(c2cnc(Sc3cccc(NC(=O)c4ccc(N5CCC(N6CC=C(c7ccc(C(=O)NCc8ccc9c(c8)CN(C8CCC(=O)NC8=O)C9=O)nc7)CC6)CC5)c(F)c4)c3)cn2)CC1 (stereo not shown) [Compound 424] | > 1000 nM
21 | CC(=O)NC1(C)CCN(c2cnc(Sc3cccc(NC(=O)c4ccc(N5CCC(N6CC=C(c7ccc(C(=O)NCc8ccc9c(c8)CN(C8CCC(=O)NC8=O)C9=O)nc7)CC6)CC5)c(F)c4)c3)cn2)CC1 (stereo not shown) [Compound 425] | > 1000 nM
22 | CC1(N)CCN(c2cnc(Sc3cccc(NC(=O)c4ccc(N5CCC(N6C=C(c7ncc(C(=O)NCc8ccc9c(c8)CN(C8CCC(=O)NC8=O)C9=O)o7)CC6)CC5)c(F)c4)c3)cn2)CC1 (stereo not shown) [Compound 426] | > 1000 nM
23 | C[C@H](N)C(=O)N[C@@H](Cc1ccccc1)C(=O)NC1(C)CCN(c2cnc(Sc3cccc(NC(=O)c4ccc(N5CCC(N6CC=C(c7ccc(C(=O)NCc8ccc9c(c8)CN(C8CCC(=O)NC8=O)C9=O)nc7)CC6)CC5)cc4)c3)cn2)CC1 (stereo partly shown) [Compound 427] | > 1000 nM
24 | CC1(N)CCN(c2cnc(Sc3cccc(NC(=O)c4ccc(N5CCC(N6CC=C(c7cnc(C(=O)NCc8ccc9c(c8)CN(C8CCC(=O)NC8=O)C9=O)c(F)c7)CC6)CC5)nc4)c3)cn2)CC1 (stereo not shown) [Compound 428] | 100 to 1000 nM
25 | CC1(N)CCN(c2cnc(Sc3cccc(NC(=O)c4cnc(N5CCC(N6CC=C(c7ccc(C(=O)NCc8ccc9c(c8)CN(C8CCC(=O)NC8=O)C9=O)nn7)CC6)CC5)cn4)c3)cn2)CC1 (stereo not shown) [Compound 429] | 100 to 1000 nM
26 | CC1(N)CCN(c2cnc(Sc3cccc(NC(=O)c4cnc(N5CCC(N6CC=C(c7ccc(C(=O)NCc8ccc9c(c8)CN(C8CCC(=O)NC8=O)C9=O)nc7)CC6)CC5)cn4)c3)cn2)CC1 (stereo not shown) [Compound 430] | 100 to 1000 nM
27 | CC1(N)CCN(c2cnc(Sc3cccc(NC(=O)c4ccc(N5CCC(N6CC=C(c7cnc(C(=O)NCc8ccc9c(c8)CN(C8CCC(=O)NC8=O)C9=O)c(Cl)c7)CC6)CC5)nc4)c3)cn2)CC1 (stereo not shown) [Compound 431] | 100 to 1000 nM
28 | CC1(N)CCN(c2cnc(Sc3cccc(NC(=O)c4ccc(C5=CCC(N6CC=C(c7ccc(C(=O)NCc8ccc9c(c8)CN(C8CCC(=O)NC8=O)C9=O)nc7)CC6)CC5)nc4)c3)cn2)CC1 (stereo not shown) [Compound 432] | > 1000 nM
29 | COCC1(N)CCN(c2cnc(Sc3cccc(NC(=O)c4ccc(N5CCC(N6CC=C(c7ccc(C(=O)NCc8ccc9c(c8)CN(C8CCC(=O)NC8=O)C9=O)nn7)CC6)CC5)cc4)c3)cn2)CC1 (stereo not shown) [Compound 433] | > 1000 nM
30 | COCC1(N)CCN(c2cnc(Sc3cccc(NC(=O)c4ccc(N5CCC(N6CC=C(c7ccc(C(=O)NCc8ccc9c(c8)CN(C8CCC(=O)NC8=O)C9=O)nc7)CC6)CC5)cc4)c3)cn2)CC1 (stereo not shown) [Compound 434] | < 100 nM
31 | CC1(N)CCN(c2cnc(Sc3cccc(NC(=O)c4ccc(N5CCC(N6CCN(c7ccc(C(=O)NCc8ccc9c(c8)CN(C8CCC(=O)NC8=O)C9=O)nc7)CC6)CC5)nc4)c3)cn2)CC1 (stereo not shown) [Compound 436] | 100 to 1000 nM
